Test results: patent US10174065B2, “Antidiabetic enolic glucoside of phenylpyruvic acid” (ZADEC APS, priority 2010, dated 2019)

Tested on: glucose stimulated insulin secretion
Test: Glucose stimulated insulin secretion rate AUC in prediabetic vervet monkeys (FIG. 2)
Assay type: in vivo
Settings: versus untreated
Protocol: Prediabetic vervet monkeys (fasting plasma glucose levels between 4.0 and 5.5 mM) were treated with 10 ug/kg RX-1 3 times daily with meals for 7 days. Blood samples were collected following 1.75 g/kg oral glucose stimulation at 0, 5, 10, 15, 30, 60, 90, 120 and 180 minutes. AUC values calculated mean glucose stimulated insulin secretion values over the time interval 0-120 min. Four monkeys were used in each group (untreated, RX1-treated).

O=C(O)/C(=C/c1ccccc1)O[C@@H]1O[C@H](CO)[C@@H](O)[C@H](O)[C@H]1O [RX-1, 3-Phenyl-2-(3,4,5-trihydroxy-6-hydroxymethyl-tetrahydro-pyran-2-yloxy)-acrylic acid]
glycaemic control (10 ug/kg 3 times daily for 7 days): better glycaemic control | decrease of glucose stimulated insulin secretion (AUC 0-120 min) (10 ug/kg 3 times daily with meals for 7 days, 1.75 g/kg oral glucose stimulation, FIG. 2): 46%
